Results: patent publication US20250179028A1, “ACRYLAMIDE COMPOUNDS” (NRG THERAPEUTICS LTD, priority 2022, published 2025)
Values after ≈ are worked out from the molar mass of the structure shown. Like-named read-outs stand apart in the source and are kept apart here. Marks after values point to notes of the source that are not given here.

Assays:
[1] = test system: mPTP; assay: mPTP activity (Ca2+ retention) assay in isolated rat liver mitochondria; type: biochemical; conditions: isolated rat liver mitochondria
Procedure, shortened: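 Freshly isolated female Sprague Dawley rat liver mitochondria were energised with succinate and rotenone in pH 7.4 buffer with Fluo5N, then pre-incubated 10 min at RT with compound (30 μM to 1 nM final) before a 75 μM CaCl2 bolus. The IC50 used 10-min fluorescence, normalised to DMSO and 5 μM cyclosporin A.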

[2] = PBS and FaSSIF solubility; type: physicochemical; conditions: kinetic from dmso stock
Procedure, shortened: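 Solubility was measured from 10 mM DMSO stocks diluted into FaSSIF or PBS pH 7.4, in duplicate, then shaken at 1100 rpm for 2 hr at 25 °C. Filtrates were quantified by LC-MS/MS against an internal standard and a known-concentration standard.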

[3] = Hepatocyte clearance assay, human; type: in vitro ADME; conditions: cryopreserved primary human hepatocytes, average value from two experiments, read-out: Human heps Clint
Procedure, shortened: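 Cryopreserved rat or human hepatocytes, 0.5×10^6 viable cells/mL in L-15 medium, incubated with compound at 37 °C; samples to 120 min, duplicate. Parent loss by LC/MS/MS; t½ = 0.693/k from ln-linear regression, converted to CLint in μL/min/1×10^6 cells.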

[4] = average value from multiple experiments (n ≥ 2)
[5] = aqueous buffer, PBS pH 7.4, 2 hr at 25° C., read-out: Solubility PBS (pH 7.4)
[6] = fasted state simulated intestinal fluid (FaSSIF), fassif, Fasted state simulated intestinal fluid, 2 hr at 25° C., read-out: Solubility FaSSIF

Cc1n[nH]c2cc(/C=C/C(=O)NC3CCc4ccccc43)ccc12 (stereo not shown) [Example 25, (E)-N-(2,3-dihydro-1H-inden-1-yl)-3-(3-methyl-1H-indazol-6-yl)acrylamide]
mPTP Rat liver pIC50 [1, 4]: 6.9
solubility at 2 h [2, 5]: 3.69 µM (≈ 1.17 µg/mL)
hepatocyte CLint at 1 µM [3]: 21.8 µL/min/1e6 cells

Cc1c(F)cccc1NC(=O)/C=C/c1ccc2c(c1)NC(=O)C2C (stereo not shown) [Example 8, (E)-N-(3-fluoro-2-methylphenyl)-3-(3-methyl-2-oxoindolin-6-yl)acrylamide]
mPTP Rat liver pIC50 [1, 4]: 5.9
solubility at 2 h [2, 5]: 33.6 µM (≈ 10.9 µg/mL)
solubility at 2 h [2, 6]: 220 µM (≈ 71.3 µg/mL)

Cc1cccc(C)c1NC(=O)/C=C/c1ccc2c(c1)NC(=O)C2 [Example 19, (E)-N-(2,6-dimethylphenyl)-3-(2-oxoindolin-6-yl)acrylamide]
mPTP Rat liver pIC50 [1, 4]: 6.2
solubility at 2 h [2, 5]: 134 µM (≈ 41.1 µg/mL)
solubility at 2 h [2, 6]: 196 µM (≈ 60.2 µg/mL)
hepatocyte CLint at 1 µM [3]: 4.02 µL/min/1e6 cells

Cc1c(F)cccc1NC(=O)/C=C/c1ccc2c(c1)[nH]c(=O)n2C [Example 7, (E)-N-(3-fluoro-2-methylphenyl)-3-(1-methyl-2-oxo-2,3-dihydro-1H-benzo[d]imidazol-5-yl)acrylamide]
mPTP Rat liver pIC50 [1, 4]: 6.8
solubility at 2 h [2, 5]: 1.4 µM (≈ 0.455 µg/mL)
solubility at 2 h [2, 6]: 22.5 µM (≈ 7.32 µg/mL)
hepatocyte CLint at 1 µM [3]: 7.63 µL/min/1e6 cells

Cc1c(F)cccc1NC(=O)/C=C/c1ccc2c(c1)NC(=O)C2 [Example 10, (E)-N-(3-fluoro-2-methylphenyl)-3-(2-oxoindolin-6-yl)acrylamide]
mPTP Rat liver pIC50 [1, 4]: 6.7
solubility at 2 h [2, 5]: 4.7 µM (≈ 1.46 µg/mL)
solubility at 2 h [2, 6]: 74 µM (≈ 23 µg/mL)
hepatocyte CLint at 1 µM [3]: 3.3 µL/min/1e6 cells

CO[C@H]1Cc2ccccc2[C@@H]1NC(=O)/C=C/c1ccc2c(C)n[nH]c2c1 [Example 54, (E)-N-((1S,2S)-2-methoxy-2,3-dihydro-1H-inden-1-yl)-3-(3-methyl-1H-indazol-6-yl)acrylamide]
mPTP Rat liver pIC50 [1, 4]: 7.6
solubility at 2 h [2, 6]: 22 µM (≈ 7.63 µg/mL)
hepatocyte CLint at 1 µM [3]: 10.8 µL/min/1e6 cells

CCn1c(=O)[nH]c2cc(/C=C/C(=O)Nc3cccc(F)c3C)ccc21 [Example 22, (E)-3-(1-ethyl-2-oxo-2,3-dihydro-1H-benzo[d]imidazol-5-yl)-N-(3-fluoro-2-methylphenyl)acrylamide]
mPTP Rat liver pIC50 [1, 4]: 6.6
solubility at 2 h [2, 5]: 0.4 µM (≈ 0.136 µg/mL)
hepatocyte CLint at 1 µM [3]: 16.2 µL/min/1e6 cells

Cc1c(F)cccc1NC(=O)/C=C/c1ccc2c(c1F)NC(=O)C2 [Example 5, (E)-N-(3-fluoro-2-methylphenyl)-3-(7-fluoro-2-oxoindolin-6-yl)acrylamide]
mPTP Rat liver pIC50 [1, 4]: 6.7
solubility at 2 h [2, 5]: 6.78 µM (≈ 2.23 µg/mL)
solubility at 2 h [2, 6]: 66 µM (≈ 21.7 µg/mL)

Cc1c(F)cccc1NC(=O)/C=C/c1ccc2c(c1)[nH]c(=O)n2C1CC1 [Example 23, (E)-3-(1-cyclopropyl-2-oxo-2,3-dihydro-1H-benzo[d]imidazol-5-yl)-N-(3-fluoro-2-methylphenyl)acrylamide]
mPTP Rat liver pIC50 [1, 4]: 6.6
solubility at 2 h [2, 5]: 6.13 µM (≈ 2.15 µg/mL)
hepatocyte CLint at 1 µM [3]: 17.4 µL/min/1e6 cells

Cc1c(F)cccc1NC(=O)/C(F)=C/c1ccc2c(c1)NC(=O)C2 [Example 47, (Z)-2-fluoro-N-(3-fluoro-2-methylphenyl)-3-(2-oxoindolin-6-yl)acrylamide]
mPTP Rat liver pIC50 [1, 4]: 5.9
solubility at 2 h [2, 5]: 0.5 µM (≈ 0.164 µg/mL)
hepatocyte CLint at 1 µM [3]: 4.78 µL/min/1e6 cells

Cc1ccc(F)c(C)c1NC(=O)/C=C/c1ccc2c(c1)[nH]c(=O)n2C [Example 30, (E)-N-(3-fluoro-2,6-dimethylphenyl)-3-(1-methyl-2-oxo-2,3-dihydro-1H-benzo[d]imidazol-5-yl)acrylamide]
mPTP Rat liver pIC50 [1, 4]: 7.4
solubility at 2 h [2, 5]: 5.73 µM (≈ 1.94 µg/mL)
solubility at 2 h [2, 6]: 135 µM (≈ 46 µg/mL)
hepatocyte CLint at 1 µM [3]: 18.1 µL/min/1e6 cells

Cc1c(F)cccc1NC(=O)/C=C/c1ccc2cn[nH]c2c1 [Comparative Example 1, (E)-N-(2-methyl-3-fluorophenyl)-3-(1H-indazol-6-yl)acrylamide, reference compound]
mPTP Rat liver pIC50 ([1]; average value from a larger number of experiments): 7.8***
mPTP Rat liver pIC50 [1, 4]: 8.0
solubility at 2 h [2, 5]: 0.9 µM (≈ 0.266 µg/mL)
solubility at 2 h [2, 6]: 4 µM (≈ 1.18 µg/mL)
hepatocyte CLint at 1 µM [3]: 13 µL/min/1e6 cells

CO[C@H]1Cc2ccccc2[C@@H]1NC(=O)/C=C/c1ccc2c(F)n[nH]c2c1 [Example 73, (E)-3-(3-fluoro-1H-indazol-6-yl)-N-((1S,2S)-2-methoxy-2,3-dihydro-1H-Inden-1-yl)acrylamide]
mPTP Rat liver pIC50 [1, 4]: 8.1
solubility at 2 h [2, 6]: 37.5 µM (≈ 13.2 µg/mL)
hepatocyte CLint at 1 µM [3]: 7.7 µL/min/1e6 cells

Cc1c(F)cccc1NC(=O)/C=C/c1ccc2oc(=O)[nH]c2c1 [Example 6, (E)-N-(3-fluoro-2-methylphenyl)-3-(2-oxo-2,3-dihydrobenzo[d]oxazol-5-yl)acrylamide]
mPTP Rat liver pIC50 [1, 4]: 6.8
solubility at 2 h [2, 5]: 3.71 µM (≈ 1.16 µg/mL)
solubility at 2 h [2, 6]: 16 µM (≈ 5 µg/mL)
hepatocyte CLint at 1 µM [3]: < 3 µL/min/1e6 cells
